# Test results: patent US20240115588A1, “USE OF PROTEASOME INHIBITORS IN THE TREATMENT OF CORONAVIRUS INFECTIONS” (priority 2021, published 2024)
# Columns and labels:
# [1] = target: β5 chymotrypsin-like subunit of the 20S proteolytic site of the proteasome (Homo sapiens, UniProt P28074); conditions: proteasome inhibitor dissociation; cited from earlier work
# [2] = tested on: SARS-CoV-2; conditions: cited from earlier work; for dose for complete prevention of CPE: Vero E6, shorter drug treatment time, bortezomib could not completely prevent CPE at these doses
# [3] = cited from earlier work
# [4] = tested on: 2019 Novel Coronavirus, Isolate USA-WA1/2020 (SARS-CoV-2); assay: In vitro efficacy in Calu-3 lung cells, immunostaining assay; type: cell-based
# [5] = tested on: human plasma protein; conditions: IV administered bortezomib; average; cited from earlier work
# [6] = tested on: 2019 Novel Coronavirus, Isolate USA-WA1/2020 (SARS-CoV-2); assay: In vitro efficacy in Vero E6 cells, immunostaining assay (second testing series); type: cell-based; conditions: for EC50: Severe acute respiratory syndrome coronavirus 2, Vero C1008
# [7] = tested on: Vero E6 cells; conditions: ranking of drugs for expected efficacy against SARS-CoV-2; cited from earlier work
# [8] = tested on: Vero E6 cells; conditions: cited from earlier work
# [9] = Vero E6, shorter treatment schedule
smiles,measurement,setting,value
CC(C)C[C@H](NC(=O)[C@H](Cc1ccccc1)NC(=O)c1cnccn1)B(O)O [Bortezomib],dissociation half-life,[1],1.83 h
same,dose for complete prevention of CPE,[2],> 30 µM
same,doses at which inhibition of virus-induced cytopathic effects was observed,[2]; [9],> 30 µM
same,concentration inhibiting virus-induced cytopathic effects (CPE),[2]; Vero E6 cells infected with SARS-CoV-2,0.05 µM
same,bioavailability,[3]; IV administration or subcutaneous injection,100%
same,time to peak plasma levels,[3]; after IV administration,approximately 5 minutes
same,EC50,"[4]; Calu-3 lung cells, MOI 0.001 TCID50/cell, immunostaining at 48±6 hours post inoculation, preliminary results, read-out: EC50",6.9 nM
same,EC100,"[4]; Calu-3 lung cells, whether EC100 was achieved",Achieved
same,EC50,"[4]; Severe acute respiratory syndrome coronavirus 2, Calu-3, Calu-3 lung cells, MOI 0.001 TCID50/cell, immunostaining at 48±6 hours post inoculation, preliminary results, read-out: EC50",7.8 nM
same,in vitro binding to human plasma protein,[5],83%
same,EC50,"[6]; Vero E6 cells, MOI 0.001 TCID50/cell, immunostaining at 48±6 hours post inoculation, read-out: EC50",9.92 nM
same,EC100,"[6]; Vero E6 cells, whether EC100 was achieved",Achieved
same,category in algorithmic prediction study,[7],cytotoxic drug
same,doses at which cytotoxicity was observed,[8]; [9],> 30 µM
same,concentration at which cytotoxicity was observed,[8]; Vero E6 cells,2 nM
CC(C)C[C@H](NC(=O)CNC(=O)c1cc(Cl)ccc1Cl)B(O)O [Ixazomib],dissociation half-life,[1],0.3 h
CCC(CC)COC(=O)[C@H](C)N[P@](=O)(OC[C@H]1O[C@@](C#N)(c2ccc3c(N)ncnn23)[C@H](O)[C@@H]1O)Oc1ccccc1 [Remdesivir],EC50,"[4]; Severe acute respiratory syndrome coronavirus 2, Calu-3",252 nM
same,EC50,[6],1150 nM
CCN(CC)CCCC(C)Nc1ccnc2cc(Cl)ccc12 (stereo not shown) [chloroquine],dose for complete prevention of CPE,[2],15 µM
